How the values were obtained:
Format in all cases: in vivo
[1] = system: Digitaria sanguinalis (DIGSA); experiment: Herbicidal pre-emergence action, section C (Table C12); settings: visual grading after ca. 3 weeks
Procedure, shortened: (§1)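 Compounds applied as aqueous WP or EC preparations (0.5% additive, 600 l water/ha) onto soil covering freshly sown seeds in sandy loam. Herbicidal effect is visually estimated % damage after about 3 weeks, where 100% means plants died off and 0% matches controls.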

[2] = system: Echinochloa crus-galli (ECHCG); experiment: Herbicidal pre-emergence action, section A (Table A3); settings: visual grading after ca. 3 weeks vs untreated controls; for pest or weed control at 320 g/ha / pest or weed control at 1280 g/ha: Echinochloa crus-galli, pre-emergence, 504 h, read-out: pre-emergence activity against ECHCG in %; for pest or weed control at 320 g/ha / pre-emergence activity against ECHCG in %: application rate 320 g/ha; for pest or weed control at 1280 g/ha: application rate 1280 g/ha
Procedure, shortened: (§2)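 Test plants, grown from seed sown in sandy loam with two species per pot, were treated pre-emergence by spraying the covering soil with WP or EC formulations at 600 l/ha water plus 0.5% additive. Visual grading of percent damage followed at ca. 3 weeks.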

[3] = system: Kochia scoparia (KCHSC); experiment: Herbicidal post-emergence action, section B (Table B4); settings: visual rating about 3 weeks after treatment vs untreated controls; for pest or weed control at 1280 g/ha / pest or weed control at 320 g/ha: Bassia scoparia, post-emergence, 504 h, read-out: post-emergence activity against KCHSC in %
Procedure, shortened: (§3)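 Weeds were sown in sandy loam and grown in a greenhouse, then sprayed at the one-leaf stage 2 to 3 weeks after sowing. Compounds, formulated as WP or EC, went on as aqueous suspension or emulsion with 0.5% additive at 600 liters per hectare. Visual rating after about 3 weeks against untreated controls (100% = plants dead, 0% = like controls).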

[4] = system: Abutilon theophrasti (ABUTH); experiment: Herbicidal pre-emergence action, section A (Table A1); settings: visual grading after ca. 3 weeks vs untreated controls; for pest or weed control at 1280 g/ha / pest or weed control at 320 g/ha: Abutilon theophrasti, pre-emergence, 504 h, read-out: pre-emergence activity against ABUTH in %
Procedure, shortened: as §2

[5] = system: Polygonum convolvulus (POLCO); experiment: Herbicidal pre-emergence action, section C (Table C7); settings: visual grading after ca. 3 weeks
Procedure, shortened: as §1

[6] = system: Amaranthus retroflexus (AMARE); experiment: Herbicidal post-emergence action, section E (Table E3); settings: assessed visually after ca. 3 weeks; for post-emergence activity against AMARE in % / pest or weed control at 320 g/ha: application rate 320 g/ha
From the text: Seeds of mono- and dicotyledonous weed plants and crop plants were sown, in plastic or organic planting pots, in sandy loam, covered with soil and grown in a greenhouse under controlled growth conditions. 2 to 3 weeks after sowing, the test plants were sprayed in the single-leaf stage. The compounds according to the invention, formulated in form of wettable powders (WP) or as emulsifiable concentrates (EC), were sprayed onto the green plant parts as aqueous suspension or emulsion, with the addition of 0.5% of an additive, at an application rate of 600 l of water/ha (converted). The test plants were placed in the greenhouse for ca. 3 weeks under optimum growth conditions, and then the effect of the preparations was assessed visually in comparison with untreated controls (herbicidal effect in percent (%): 100% effect=plants have died off, 0% effect=as control plants).

[7] = system: Echinochloa crus-galli (ECHCG); experiment: Herbicidal post-emergence action, section B (Table B3); settings: rated visually after about 3 weeks; for pest or weed control at 1280 g/ha: Echinochloa crus-galli, 504 h, read-out: post-emergence activity against ECHCG in %
Procedure, shortened: as §3

[8] = system: Digitaria sanguinalis (DIGSA); experiment: Herbicidal post-emergence action, section B (Table B12); settings: visual rating about 3 weeks after treatment vs untreated controls; for post-emergence activity against DIGSA in % / pest or weed control at 1280 g/ha: application rate 1280 g/ha
Procedure, shortened: as §3

[9] = system: Digitaria sanguinalis (DIGSA); experiment: Herbicidal pre-emergence action, section A (Table A12); settings: for pre-emergence activity against DIGSA in % / pest or weed control at 320 g/ha: application rate 320 g/ha
Procedure, shortened: as §2

[10] = system: Abutilon theophrasti (ABUTH); experiment: Herbicidal post-emergence action, section B (Table B1); settings: rated visually after about 3 weeks; for pest or weed control at 1280 g/ha: Abutilon theophrasti, 504 h, read-out: post-emergence activity against ABUTH in %
Procedure, shortened: as §3

[11] = system: Glycine max (GLXMA); experiment: Pre-emergence effects on crop plants, section D (Table D4); settings: visual grading after ca. 3 weeks
Procedure, shortened: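 Pre-emergence soil-surface spray, 320 g/ha or below, 600 l water/ha + 0.5% additive; WP/EC formulations; sandy loam; greenhouse; visual % damage vs untreated at ~3 wk.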

[12] = Digitaria sanguinalis, pre-emergence, 504 h, application rate 80 g/ha, read-out: pre-emergence activity against DIGSA in %
[13] = Fallopia convolvulus, pre-emergence, 504 h, application rate 320 g/ha, read-out: pre-emergence activity against POLCO in %
[14] = Digitaria sanguinalis, 504 h, read-out: pre-emergence activity against DIGSA in %
[15] = Amaranthus retroflexus, post-emergence, 504 h, read-out: post-emergence activity against AMARE in %
[16] = Digitaria sanguinalis, post-emergence, 504 h, read-out: post-emergence activity against DIGSA in %

SMILES	pest or weed control at 80 g/ha [1, 12] [%]	pest or weed control at 320 g/ha [2] [%]	pest or weed control at 1280 g/ha ([3]; application rate 1280 g/ha) [%]	pest or weed control at 1280 g/ha ([4]; application rate 1280 g/ha) [%]	pest or weed control at 320 g/ha [5, 13] [%]	pest or weed control at 1280 g/ha ([7]; application rate 1280 g/ha) [%]	post-emergence activity against DIGSA in % [8] [%]	pre-emergence activity against DIGSA in % [9] [%]	pre-emergence activity against ECHCG in % [2] [%]	post-emergence activity against KCHSC in % ([3]; application rate 320 g/ha) [%]	post-emergence activity against AMARE in % [6] [%]	pest or weed control at 320 g/ha [9, 14] [%]	pre-emergence activity against GLXMA in % (crop plant damage) ([11]; application rate 80 g/ha) [%]	pest or weed control at 1280 g/ha ([10]; application rate 1280 g/ha) [%]	pest or weed control at 320 g/ha ([3]; application rate 320 g/ha) [%]	pest or weed control at 320 g/ha [6, 15] [%]	pest or weed control at 1280 g/ha [8, 16] [%]	pre-emergence activity against POLCO in % ([5]; application rate 320 g/ha) [%]	other results
Cc1cc2c(nc1-c1ccccc1F)NCS2 [Example I-007, 5-(2-fluorophenyl)-6-methyl-2,3-dihydro[1,3]thiazolo[4,5-b]pyridine]	100	100	90	90	80	90													pest or weed control at 80 g/ha ([6]; Amaranthus retroflexus, post-emergence, 504 h, application rate 80 g/ha, read-out: post-emergence activity against AMARE in %): 80%
COC(=O)CCC(=O)N1CSc2cc(C)c(-c3ccccc3F)nc21 [Example I-010]							90	100	100	90	80								pre-emergence activity against DIGSA in % ([1]; application rate 80 g/ha): 100%; post-emergence activity against ABUTH in % ([10]; application rate 320 g/ha): 90%; pre-emergence activity against ABUTH in % ([4]; application rate 1280 g/ha): 90%; pre-emergence activity against POLCO in % ([5]; application rate 80 g/ha): 80%; post-emergence activity against ECHCG in % ([7]; application rate 1280 g/ha): 90%
Cc1cc2c(nc1-c1cccc(F)c1F)NCS2 [Example I-029, 5-(2,3-difluorophenyl)-6-methyl-2,3-dihydro[1,3]thiazolo[4,5-b]pyridine]	90	100		90	80	90						100	10	90	90	80			
CC(=O)N1CSc2cc(Br)c(-c3ccccc3Cl)nc21 [Example I-055, 1-[6-bromo-5-(2-chlorophenyl)[1,3]thiazolo[4,5-b]pyridin-3(2H)-yl]ethanone]	90		90	90	80	90						100				80	90		pre-emergence activity against GLXMA in % (crop plant damage) ([11]; application rate 320 g/ha): 20%; pest or weed control at 1280 g/ha [2]: 100%
CCS(=O)(=O)N1CSc2cc(C)c(-c3ccccc3F)nc21 [Example I-060, 3-(ethylsulfonyl)-5-(2-fluorophenyl)-6-methyl-2,3-dihydro[1,3]thiazolo[4,5-b]pyridine]	100					90						100	0	90	90	90			pest or weed control at 320 g/ha ([8]; Digitaria sanguinalis, post-emergence, 504 h, application rate 320 g/ha, read-out: post-emergence activity against DIGSA in %): 90%; pest or weed control at 1280 g/ha [2]: 100%; pest or weed control at 320 g/ha ([4]; application rate 320 g/ha): 90%; pest or weed control at 80 g/ha ([5]; Fallopia convolvulus, pre-emergence, 504 h, application rate 80 g/ha, read-out: pre-emergence activity against POLCO in %): 80%
CCOCCS(=O)(=O)N1C[S+]([O-])c2cc(C)c(-c3ccccc3F)nc21 (stereo not shown) [Example I-127]	100	100			90	90						100	20		90	90	90		
COCC1(C(=O)N2CSc3cc(C)c(-c4ccccc4F)nc32)CC(Cl)=NO1 (stereo not shown) [Example I-128]							90	100	100	90	90							90	pre-emergence activity against DIGSA in % ([1]; application rate 80 g/ha): 100%; post-emergence activity against ABUTH in % ([10]; application rate 320 g/ha): 90%; pre-emergence activity against ABUTH in % ([4]; application rate 320 g/ha): 90%; post-emergence activity against ECHCG in % ([7]; application rate 320 g/ha): 90%
Cc1ccccc1-c1nc2c(cc1C)SCN2C(=O)C1(C)CC(Cl)=NO1 (stereo not shown) [Example I-137]							90	100	100	90	80							80	pre-emergence activity against DIGSA in % ([1]; application rate 320 g/ha): 100%; post-emergence activity against ABUTH in % ([10]; application rate 1280 g/ha): 90%; pre-emergence activity against ABUTH in % ([4]; application rate 1280 g/ha): 100%; post-emergence activity against ECHCG in % ([7]; application rate 320 g/ha): 90%
CC1(C(=O)N2CSc3cc(Br)c(-c4ccccc4)nc32)CC(Cl)=NO1 (stereo not shown) [Example I-139]							90	100	100		90							80	pre-emergence activity against DIGSA in % ([1]; application rate 320 g/ha): 100%; post-emergence activity against ABUTH in % ([10]; application rate 1280 g/ha): 90%; post-emergence activity against KCHSC in % ([3]; application rate 1280 g/ha): 90%; pre-emergence activity against ABUTH in % ([4]; application rate 320 g/ha): 90%; post-emergence activity against ECHCG in % ([7]; application rate 1280 g/ha): 90%
CC1(C(=O)N2CSc3cc(Br)c(-c4ccccc4Cl)nc32)CC(Cl)=NO1 (stereo not shown) [Example I-141, [6-bromo-5-(2-chlorophenyl)[1,3]thiazolo[4,5-b]pyridin-3(2H)-yl](3-chloro-5-methyl-4,5-dihydro-1,2-oxazol-5-yl)methanone]		100	90		80	90								90		80	90		pest or weed control at 320 g/ha ([1]; Digitaria sanguinalis, pre-emergence, 504 h, application rate 320 g/ha, read-out: pre-emergence activity against DIGSA in %): 90%; pest or weed control at 1280 g/ha ([9]; Digitaria sanguinalis, 504 h, application rate 1280 g/ha, read-out: pre-emergence activity against DIGSA in %): 100%; pest or weed control at 320 g/ha ([4]; application rate 320 g/ha): 100%
